In patent US20090192308A1, “1,5-DIHYDRO-2H-PYRROL-2-ONE TRICYCLIC DERIVATIVES HAVING ANTI-INFECTIVE ACTIVITY” (CPC BIOTECH S. r.l., priority 2008, published 2009):
In brackets after ≈: the same amount, converted by molar mass. Entries after “also recorded” stand apart in the source; their conditions may differ.

Columns and labels:
[1] = system: 11 clinically isolated Gram-negative and Gram-positive bacterial strains, mostly MDR, and two types of yeast of the genus Candida; experiment: antimicrobial activity towards clinical isolates and yeasts (overall); format: cell-based; details: pathogens resistant to β-lactam antibiotics or multi-drug resistant, and yeasts
Method: (§1) The antimicrobial activity of the substances (Ii), (Il), (Im), (In), (Io), (Ip), (Iq), (Ir), (Is) was evaluated towards 11 clinically isolated Gram-negative and Gram-positive bacterial strains, mostly multi-antibiotic resistant (MDR), and towards two types of yeast of the genus Candida.
(§2) A plate method was used (agar spot method or disk diffusion assay—spot quantity 10 μl, bacterial inoculum 10^8 CFU/ml and DMSO negative control): the (Io) and (Ir) concentration used was 100 mM. The antimicrobial activity was evaluated by measuring the diameter of the microbial growth inhibition halo expressed in millimetres, the reported values being the average of three experimental points.

[2] = system: Staphylococcus haemolyticus MDR; experiment: agar spot / disk diffusion plate method; format: cell-based; details: spot 10 μl, inoculum 10^8 CFU/ml, (Io) and (Ir) 100 mM, average of three points
Method: as §1, §2

Candida parapsilosis = experiment: agar spot / disk diffusion plate method; format: cell-based; details: spot 10 μl, inoculum 10^8 CFU/ml, (Io) and (Ir) 100 mM, average of three points
Method: as §1, §2

[3] = system: Pseudomonas aeruginosa MDR; experiment: agar spot / disk diffusion plate method; format: cell-based; details: spot 10 μl, inoculum 10^8 CFU/ml, (Io) and (Ir) 100 mM, average of three points
Method: as §1, §2

Enterococcus faecium MDR = experiment: agar spot / disk diffusion plate method; format: cell-based; details: spot 10 μl, inoculum 10^8 CFU/ml, (Io) and (Ir) 100 mM, average of three points
Method: as §1, §2

Candida albicans = experiment: agar spot / disk diffusion plate method; format: cell-based; details: spot 10 μl, inoculum 10^8 CFU/ml, (Io) and (Ir) 100 mM, average of three points
Method: as §1, §2

[4] = system: Staphylococcus aureus MRSA; experiment: agar spot / disk diffusion plate method; format: cell-based; details: spot 10 μl, inoculum 10^8 CFU/ml, (Io) and (Ir) 100 mM, average of three points
Method: as §1, §2

[5] = system: Acinetobacter baumannii MDR; experiment: agar spot / disk diffusion plate method; format: cell-based; details: spot 10 μl, inoculum 10^8 CFU/ml, (Io) and (Ir) 100 mM, average of three points
Method: as §1, §2

Salmonella spp. = experiment: agar spot / disk diffusion plate method; format: cell-based; details: spot 10 μl, inoculum 10^8 CFU/ml, (Io) and (Ir) 100 mM, average of three points
Method: as §1, §2

Escherichia coli = experiment: agar spot / disk diffusion plate method; format: cell-based; details: spot 10 μl, inoculum 10^8 CFU/ml, (Io) and (Ir) 100 mM, average of three points
Method: as §1, §2

Klebsiella oxytoca = experiment: agar spot / disk diffusion plate method; format: cell-based; details: spot 10 μl, inoculum 10^8 CFU/ml, (Io) and (Ir) 100 mM, average of three points
Method: as §1, §2

Serratia marcescens = experiment: agar spot / disk diffusion plate method; format: cell-based; details: spot 10 μl, inoculum 10^8 CFU/ml, (Io) and (Ir) 100 mM, average of three points
Method: as §1, §2

[6] = system: Enterococcus faecalis MDR; experiment: agar spot / disk diffusion plate method; format: cell-based; details: spot 10 μl, inoculum 10^8 CFU/ml, (Io) and (Ir) 100 mM, average of three points
Method: as §1, §2

Klebsiella pneumonite = experiment: agar spot / disk diffusion plate method; format: cell-based; details: spot 10 μl, inoculum 10^8 CFU/ml, (Io) and (Ir) 100 mM, average of three points
Method: as §1, §2

[7] = system: methicillin-resistant Staphylococcus aureus strain (MRSA); experiment: MIC by microdilutions in broth; format: cell-based
Method: The minimum inhibitory concentration (MIC) of the substances (Io) and (Ir) towards the methicillin-resistant Staphylococcus aureus strain (MRSA) was then evaluated by the method of microdilutions in broth: it should be noted that Staphylococcus aureus (MRSA) is one of the main multi-resistant bacteria causing serious problems in hospitals. The measured MICs were 6.25 mmol/l and 1.56 mmol/l for (Io) and (Ir) respectively.

[8] = compared with taurine and hypotaurine; cited from earlier work
[9] = in vivo biological studies, cited from earlier work

SMILES	antibiotic activity (in words) [1]	diameter of the microbial growth inhibition halo [2] [millimetres]	diameter of the microbial growth inhibition halo (Candida parapsilosis) [millimetres]	diameter of the microbial growth inhibition halo [3] [millimetres]	diameter of the microbial growth inhibition halo (Candida albicans) [millimetres]	diameter of the microbial growth inhibition halo [4] [millimetres]	diameter of the microbial growth inhibition halo [5] [millimetres]	diameter of the microbial growth inhibition halo (Salmonella spp.) [millimetres]	diameter of the microbial growth inhibition halo (Escherichia coli) [millimetres]	also measured
O=C1C2=C(SCCN2Cc2ccccc2)C2CSCCN12 (stereo not drawn) [Ip]	have shown antibiotic activity	–	–	–	–	–	–	–	–	–
CCN1CCSC2=C1C(=O)N1CCSCC21 (stereo not drawn) [Il]	have shown antibiotic activity	–	–	–	–	–	–	–	–	–
CN1CCSC2=C1C(=O)N1CCSCC21 (stereo not drawn) [Ii]	have shown antibiotic activity	–	–	–	–	–	–	–	–	–
CC(C)=CCN1CCSC2=C1C(=O)N1CCSCC21 (stereo not drawn) [Io]	have shown antibiotic activity	13	8	11	10	11.4	11	10	12	diameter of the microbial growth inhibition halo (Enterococcus faecium MDR): 8 millimetres; diameter of the microbial growth inhibition halo (Klebsiella oxytoca): 8.6 millimetres; diameter of the microbial growth inhibition halo (Serratia marcescens): 7 millimetres; diameter of the microbial growth inhibition halo [6]: 9 millimetres; diameter of the microbial growth inhibition halo (Klebsiella pneumonite): 10 millimetres; minimum inhibitory concentration (MIC) [7]: 6.25 mM (≈ 1850 µg/mL)
O=C1C2=C(SCCN2)C2CSCCN12 (stereo not drawn) [Ia, 3,4,7,8,10,10a-hexahydro-2H,5H-pyrrolo[2,1-c:3,4-b′]bis[1,4]thiazin-5-one, reference compound]	–	<2	5	<2	6	4	4	3	<2	antioxidant activity (in words) [8]: strong antioxidant activity; antioxidant properties in vivo (in words) [9]: considerable antioxidant properties; toxicity in vivo (in words) ([9]; high doses): total non-toxicity even at high doses
CC(C)N1CCSC2=C1C(=O)N1CCSCC21 (stereo not drawn) [In]	have shown antibiotic activity	–	–	–	–	–	–	–	–	–
O=C1C2=C(SCCN2c2ccc(-c3ccccc3)cc2)C2CSCCN12 (stereo not drawn) [Is]	have shown antibiotic activity	–	–	–	–	–	–	–	–	–
CCCN1CCSC2=C1C(=O)N1CCSCC21 (stereo not drawn) [Im]	have shown antibiotic activity	–	–	–	–	–	–	–	–	–
O=C1C2=C(SCCN2CCc2ccccc2)C2CSCCN12 (stereo not drawn) [Iq]	have shown antibiotic activity	–	–	–	–	–	–	–	–	–
CC(C)=CCC/C(C)=C/CN1CCSC2=C1C(=O)N1CCSCC21 (stereo not drawn) [Ir]	have shown antibiotic activity; also recorded: best activity characteristics for the widest spectrum; also recorded: excellent wide spectrum antibiotic activity	15	9.8	12	13	18.6	13	11	12	diameter of the microbial growth inhibition halo (Enterococcus faecium MDR): 14.3 millimetres; diameter of the microbial growth inhibition halo (Klebsiella oxytoca): 9.8 millimetres; diameter of the microbial growth inhibition halo (Serratia marcescens): 11 millimetres; diameter of the microbial growth inhibition halo [6]: 13.7 millimetres; diameter of the microbial growth inhibition halo (Klebsiella pneumonite): 11.5 millimetres; minimum inhibitory concentration (MIC) [7]: 1.56 mM (≈ 569 µg/mL)
